Source: patent US12077503B2, “Substituted cyclic amides and their use as herbicides” (FMC CORPORATION, priority 2015, dated 2024)

Columns and labels:
Format in all cases: in vivo
[1] = tested on: barnyardgrass (Echinochloa crus-galli); experiment: Test G Pre-Emergence Protocol; settings: Echinochloa crus-galli, pre-emergence, 312 h, evaluated after 13 days; for pest or weed control at 15.625 g/ha: 15.625 g ai/ha, read-out: Barnyard grass damage rating (100=total damage to plant; 0=no damage to plant); for pest or weed control at 62.5 g/ha: 62.5 g ai/ha, 100=total damage to plant, 0=no damage to plant, read-out: plant damage rating, Barnyardgrass; for pest or weed control at 250 g/ha: 250 g ai/ha, read-out: Barnyardgrass damage rating (100=total damage to plant; 0=no damage to plant)
How it was run: (§1)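 Herbicidal effect was rated 13 days post-application on a scale where 100 equals total damage. Spraying took place the day after sowing, using 15.625, 62.5 or 250 g/ha of compound in a 50:50 acetone/water solution with 0.5% Tween 20.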

[2] = tested on: redroot pigweed (Amaranthus retroflexus); experiment: Test G Pre-Emergence Protocol; settings: Amaranthus retroflexus, pre-emergence, 312 h, evaluated after 13 days; for pest or weed control at 15.625 g/ha: 15.625 g ai/ha; for pest or weed control at 15.625 g/ha / pest or weed control at 250 g/ha: read-out: Pigweed, Redroot damage rating (100=total damage to plant; 0=no damage to plant); for pest or weed control at 62.5 g/ha: 62.5 g ai/ha, 100=total damage to plant, 0=no damage to plant, read-out: plant damage rating, Pigweed, Redroot; for pest or weed control at 250 g/ha: 250 g ai/ha
How it was run: as §1

[3] = tested on: velvetleaf (Abutilon theophrasti); experiment: Test G Pre-Emergence Protocol; settings: Abutilon theophrasti, pre-emergence, 312 h, evaluated after 13 days; for pest or weed control at 15.625 g/ha: 15.625 g ai/ha; for pest or weed control at 15.625 g/ha / pest or weed control at 250 g/ha: read-out: Velvetleaf damage rating (100=total damage to plant; 0=no damage to plant); for pest or weed control at 62.5 g/ha: 62.5 g ai/ha, 100=total damage to plant, 0=no damage to plant, read-out: plant damage rating, Velvetleaf; for pest or weed control at 250 g/ha: 250 g ai/ha
How it was run: as §1

[4] = tested on: ivy-leaved morning glory (Ipomoea hederacea); experiment: Test G Pre-Emergence Protocol; settings: Ipomoea, pre-emergence, 312 h, evaluated after 13 days; for pest or weed control at 15.625 g/ha: 15.625 g ai/ha, read-out: Morning-glory, Ivy-leaved damage rating (100=total damage to plant; 0=no damage to plant); for pest or weed control at 250 g/ha: 250 g ai/ha, read-out: Morningglory, Ivy-leaved damage rating (100=total damage to plant; 0=no damage to plant)
How it was run: as §1

corn (Zea mays) [5] = experiment: Test G Pre-Emergence Protocol; settings: Zea mays, pre-emergence, 312 h, evaluated after 13 days; for plant injury at 15.625 g/ha: 15.625 g ai/ha; for plant injury at 15.625 g/ha / plant injury at 250 g/ha: read-out: Corn damage rating (100=total damage to plant; 0=no damage to plant); for plant injury at 62.5 g/ha: 62.5 g ai/ha, 100=total damage to plant, 0=no damage to plant, read-out: plant damage rating, Corn; for plant injury at 250 g/ha: 250 g ai/ha
How it was run: as §1

[6] = tested on: giant foxtail (Setaria faberi); experiment: Test G Pre-Emergence Protocol; settings: Setaria faberi, pre-emergence, 312 h, evaluated after 13 days; for pest or weed control at 15.625 g/ha: 15.625 g ai/ha; for pest or weed control at 15.625 g/ha / pest or weed control at 250 g/ha: read-out: Foxtail, Giant damage rating (100=total damage to plant; 0=no damage to plant); for pest or weed control at 62.5 g/ha: 62.5 g ai/ha, 100=total damage to plant, 0=no damage to plant, read-out: plant damage rating, Foxtail, Giant; for pest or weed control at 250 g/ha: 250 g ai/ha
How it was run: as §1

[7] = tested on: barnyardgrass (Echinochloa crus-galli); experiment: Test G Post-Emergence Protocol; settings: Echinochloa crus-galli, post-emergence, 312 h; for pest or weed control at 15.625 g/ha: 15.625 g ai/ha, evaluated after 13 days (100=total damage to plant; 0=no damage to plant), read-out: Barnyardgrass damage rating; for pest or weed control at 62.5 g/ha: 62.5 g ai/ha, read-out: Barnyardgrass damage rating (100=total damage to plant; 0=no damage to plant); for pest or weed control at 62.5 g/ha / pest or weed control at 250 g/ha: evaluated after 13 days; for pest or weed control at 250 g/ha: 250 g ai/ha, read-out: damage to plant, Barnyardgrass (100=total damage to plant; 0=no damage to plant)
How it was run: (§2)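 Values are percent visual injury at 13 days after treatment (0 none, 100 total). Treatment was a post-emergence spray at 15.625, 62.5 or 250 g/ha on 8-day-old pot plants kept at 24/16 °C.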

[8] = tested on: redroot pigweed (Amaranthus retroflexus); experiment: Test G Post-Emergence Protocol; settings: Amaranthus retroflexus, post-emergence, 312 h; for pest or weed control at 15.625 g/ha: 15.625 g ai/ha, evaluated after 13 days (100=total damage to plant; 0=no damage to plant), read-out: Pigweed, Redroot damage rating; for pest or weed control at 62.5 g/ha: 62.5 g ai/ha, read-out: Pigweed, Redroot damage rating (100=total damage to plant; 0=no damage to plant); for pest or weed control at 62.5 g/ha / pest or weed control at 250 g/ha: evaluated after 13 days; for pest or weed control at 250 g/ha: 250 g ai/ha, read-out: damage to plant, Pigweed, Redroot (100=total damage to plant; 0=no damage to plant)
How it was run: as §2

[9] = tested on: velvetleaf (Abutilon theophrasti); experiment: Test G Post-Emergence Protocol; settings: Abutilon theophrasti, post-emergence, 312 h; for pest or weed control at 15.625 g/ha: 15.625 g ai/ha, evaluated after 13 days (100=total damage to plant; 0=no damage to plant), read-out: Velvetleaf damage rating; for pest or weed control at 62.5 g/ha: 62.5 g ai/ha, read-out: Velvetleaf damage rating (100=total damage to plant; 0=no damage to plant); for pest or weed control at 62.5 g/ha / pest or weed control at 250 g/ha: evaluated after 13 days; for pest or weed control at 250 g/ha: 250 g ai/ha, read-out: damage to plant, Velvetleaf (100=total damage to plant; 0=no damage to plant)
How it was run: as §2

[10] = tested on: ivy-leaved morning glory (Ipomoea hederacea); experiment: Test G Post-Emergence Protocol; settings: Ipomoea, post-emergence, 312 h; for pest or weed control at 15.625 g/ha: 15.625 g ai/ha, evaluated after 13 days (100=total damage to plant; 0=no damage to plant), read-out: Morningglory, Ivy-leaved damage rating; for pest or weed control at 62.5 g/ha: 62.5 g ai/ha, read-out: Morningglory, Ivy-leaved damage rating (100=total damage to plant; 0=no damage to plant); for pest or weed control at 62.5 g/ha / pest or weed control at 250 g/ha: evaluated after 13 days; for pest or weed control at 250 g/ha: 250 g ai/ha, read-out: damage to plant, Morningglory, Ivy-leaved (100=total damage to plant; 0=no damage to plant)
How it was run: as §2

corn (Zea mays) [11] = experiment: Test G Post-Emergence Protocol; settings: Zea mays, post-emergence, 312 h; for plant injury at 15.625 g/ha: 15.625 g ai/ha, evaluated after 13 days (100=total damage to plant; 0=no damage to plant), read-out: Corn damage rating; for plant injury at 62.5 g/ha: 62.5 g ai/ha, read-out: Corn damage rating (100=total damage to plant; 0=no damage to plant); for plant injury at 62.5 g/ha / plant injury at 250 g/ha: evaluated after 13 days; for plant injury at 250 g/ha: 250 g ai/ha, read-out: damage to plant, Corn (100=total damage to plant; 0=no damage to plant)
How it was run: as §2

[12] = tested on: giant foxtail (Setaria faberi); experiment: Test G Post-Emergence Protocol; settings: Setaria faberi, post-emergence, 312 h; for pest or weed control at 15.625 g/ha: 15.625 g ai/ha, evaluated after 13 days (100=total damage to plant; 0=no damage to plant), read-out: Foxtail, Giant damage rating; for pest or weed control at 62.5 g/ha: 62.5 g ai/ha, read-out: Foxtail, Giant damage rating (100=total damage to plant; 0=no damage to plant); for pest or weed control at 62.5 g/ha / pest or weed control at 250 g/ha: evaluated after 13 days; for pest or weed control at 250 g/ha: 250 g ai/ha, read-out: damage to plant, Foxtail, Giant (100=total damage to plant; 0=no damage to plant)
How it was run: as §2

| SMILES | pest or weed control at 15.625 g/ha [1] [%] | pest or weed control at 62.5 g/ha [1] [%] | pest or weed control at 250 g/ha [1] [%] | pest or weed control at 15.625 g/ha [2] [%] | pest or weed control at 62.5 g/ha [2] [%] | pest or weed control at 250 g/ha [2] [%] | pest or weed control at 15.625 g/ha [3] [%] | pest or weed control at 62.5 g/ha [3] [%] | pest or weed control at 250 g/ha [3] [%] | pest or weed control at 15.625 g/ha [4] [%] | pest or weed control at 250 g/ha [4] [%] | plant injury at 15.625 g/ha (corn (Zea mays) [5]) [%] | plant injury at 62.5 g/ha (corn (Zea mays) [5]) [%] | plant injury at 250 g/ha (corn (Zea mays) [5]) [%] | pest or weed control at 15.625 g/ha [6] [%] | pest or weed control at 62.5 g/ha [6] [%] | pest or weed control at 250 g/ha [6] [%] | pest or weed control at 15.625 g/ha [7] [%] | pest or weed control at 62.5 g/ha [7] [%] | pest or weed control at 250 g/ha [7] [%] | also measured |
| --- | --- | --- | --- | --- | --- | --- | --- | --- | --- | --- | --- | --- | --- | --- | --- | --- | --- | --- | --- | --- | --- |
| CN1C[C@H](c2cccc(C(F)F)c2)[C@@H](C(=O)Nc2ccccc2F)C1=O (racemic) [Compound 1464] | 80 | 90 | 90 | 0 | 0 | 0 | 0 | 0 | 0 | 0 | 70 | 0 | 50 | 80 | 80 | 90 | 90 | 20 | 20 | 50 | pest or weed control at 62.5 g/ha ([4]; 62.5 g ai/ha, 100=total damage to plant, 0=no damage to plant, read-out: plant damage rating, Morningglory, Ivy-leaved): 30%; pest or weed control at 15.625 g/ha [8]: 10%; pest or weed control at 62.5 g/ha [8]: 10%; pest or weed control at 250 g/ha [8]: 30%; pest or weed control at 15.625 g/ha [9]: 10%; pest or weed control at 62.5 g/ha [9]: 0%; pest or weed control at 250 g/ha [9]: 10%; pest or weed control at 15.625 g/ha [10]: 10%; pest or weed control at 62.5 g/ha [10]: 20%; pest or weed control at 250 g/ha [10]: 50%; plant injury at 15.625 g/ha (corn (Zea mays) [11]): 20%; plant injury at 62.5 g/ha (corn (Zea mays) [11]): 10%; plant injury at 250 g/ha (corn (Zea mays) [11]): 80%; pest or weed control at 15.625 g/ha [12]: 70%; pest or weed control at 62.5 g/ha [12]: 70%; pest or weed control at 250 g/ha [12]: 70% |
| CN1C[C@H](c2ccc(F)c(OCC(F)(F)F)c2)[C@@H](C(=O)Nc2ccccc2F)C1=O (racemic) [Compound 1456] | 20 | 60 | 80 | 0 | 0 | 90 | 0 | 0 | 40 | 0 | 40 | 0 | 0 | 40 | 60 | 80 | 90 | 10 | 10 | 20 | pest or weed control at 15.625 g/ha [8]: 0%; pest or weed control at 62.5 g/ha [8]: 30%; pest or weed control at 250 g/ha [8]: 40%; pest or weed control at 15.625 g/ha [9]: 0%; pest or weed control at 62.5 g/ha [9]: 20%; pest or weed control at 250 g/ha [9]: 20%; pest or weed control at 15.625 g/ha [10]: 30%; pest or weed control at 62.5 g/ha [10]: 30%; pest or weed control at 250 g/ha [10]: 20%; plant injury at 15.625 g/ha (corn (Zea mays) [11]): 10%; plant injury at 62.5 g/ha (corn (Zea mays) [11]): 20%; plant injury at 250 g/ha (corn (Zea mays) [11]): 60%; pest or weed control at 15.625 g/ha [12]: 50%; pest or weed control at 62.5 g/ha [12]: 60%; pest or weed control at 250 g/ha [12]: 70% |
